{"source": "patent US6358885B1", "about": "“Substituted phenylheterocyclic herbicides” (Mississippi State University, priority 1992, dated 2002)", "key": {"[1]": {"tested_on": "Japonica rice", "experiment": "Test D paddy water application plant response rating 0 to 100", "assay_type": "in vivo, Oryza sativa", "details": "0 to 100 scale, approx. 21 days", "description": "(§1) Plastic pots were partially filled with silt loam soil. The soil was then saturated with water. […] After planting, water levels were raised to 3 cm above the soil surface and maintained at this level throughout the test. Chemical treatments were formulated in a non-phytotoxic solvent and applied directly to the paddy water. Treated plants and controls were maintained in a greenhouse for approximately 21 days, after which all species were compared to controls and visually evaluated. […] A dash (-) response means no test result."}, "[2]": {"tested_on": "winter barley", "experiment": "Test F preemergence/postemergence greenhouse plant response rating 0 to 100", "assay_type": "in vivo, Hordeum vulgare cv. ‘Igri’", "details": "POSTEMERGENCE, 0 to 100 scale", "description": "(§2) Compounds evaluated in this test were formulated in a non-phytoxic solvent and applied to the soil surface before plant seedlings emerged (preemergence application) and to plants that were in the one-to-four leaf stage (postemergence application). A sandy loam soil was used for the preemergence test while a mixture of sandy loam soil and greenhouse potting mix in a 60:40 ratio was used for the postemergence test. Test compounds were applied within approximately one day after planting seeds for the preemergence test. Plantings of these crops and weed species were adjusted to produce plants of appropriate size for the postemergence test. All plant species were grown using normal greenhouse practices. Crop and weed species include winter barley (Hordeum vulgare cv. ‘Igri’), blackgrass (Alopecurus myosuroides), chickweed (Stellaria media), downy brome (Bromus tectorum), field violet (Viola arvensis), galium (Galium aparine), green foxtail (Setaria viridis), kochia (Kochia scoparia), lambsquarters (Chenopodium album), speedwell (Veronica persica), rape (Brassica napus), ryegrass (Lolium multiflorum), sugar beet (Beta vulgaris cv. ‘USl’), sunflower (Helianthus annuus cv. ‘Russian Giant’), spring wheat (Triticum aestivum cv. ‘ERA’), winter wheat (Triticum aestivum cv. ‘Talent’), wild buckwheat (Polygonum convolvulus), wild mustard (Sinapis arvensis), wild oat (Avena fatua), and wild radish (Raphanus raphanistrum). Blackgrass, galium and wild oat were treated at two growth stages. […] Treated plants and untreated controls were maintained in a greenhouse for approximately 21 to 28 days, after which all treated plants were compared to untreated controls and visually evaluated. […] A dash response (-) means no test result."}, "[3]": {"tested_on": "barnyardgrass", "experiment": "Test D paddy water application plant response rating 0 to 100", "assay_type": "in vivo, Echinochloa crus-galli", "details": "0 to 100 scale, approx. 21 days", "description": "as §1"}, "[4]": {"tested_on": "Japonica rice", "experiment": "Test E paddy water application plant response rating 0 to 100", "assay_type": "in vivo, oryza sativa", "details": "Flood, 0 to 100 scale, approx. 21 days", "description": "(§3) Plastic pots were partially filled with silt loam soil. […] At testing, the water level for all plantings was raised to 2 cm above the soil surface. Chemical treatments were formulated in a non-phytotoxic solvent and applied directly to the paddy water. Treated plants and controls were maintained in a greenhouse for approximately 21 days, after which all species were compared to controls and visually evaluated. […] A dash (-) response means no test result."}, "[5]": {"tested_on": "barnyardgrass", "experiment": "Test E paddy water application plant response rating 0 to 100", "assay_type": "in vivo, Echinochloa crus-galli", "details": "Flood, 0 to 100 scale, approx. 21 days", "description": "as §3"}, "[6]": {"tested_on": "chickweed", "experiment": "Test F preemergence/postemergence greenhouse plant response rating 0 to 100", "assay_type": "in vivo, Stellaria media", "details": "POSTEMERGENCE, 0 to 100 scale", "description": "as §2"}, "[7]": {"tested_on": "kochia", "experiment": "Test F preemergence/postemergence greenhouse plant response rating 0 to 100", "assay_type": "in vivo, Kochia scoparia", "details": "POSTEMERGENCE, 0 to 100 scale", "description": "as §2"}, "[8]": {"tested_on": "field violet", "experiment": "Test F preemergence/postemergence greenhouse plant response rating 0 to 100", "assay_type": "in vivo, Viola arvensis", "details": "POSTEMERGENCE, 0 to 100 scale", "description": "as §2"}, "[9]": {"tested_on": "umbrella sedge", "experiment": "Test D paddy water application plant response rating 0 to 100", "assay_type": "in vivo, Cyperus difformis", "details": "0 to 100 scale, approx. 21 days", "description": "as §1"}, "[10]": {"tested_on": "sugar beet", "experiment": "Test F preemergence/postemergence greenhouse plant response rating 0 to 100", "assay_type": "in vivo, Beta vulgaris cv. ‘USl’", "details": "POSTEMERGENCE, 0 to 100 scale", "description": "as §2"}, "[11]": {"tested_on": "duck salad", "experiment": "Test D paddy water application plant response rating 0 to 100", "assay_type": "in vivo, Heteranthera limosa", "details": "0 to 100 scale, approx. 21 days", "description": "as §1"}, "[12]": {"tested_on": "wild mustard", "experiment": "Test F preemergence/postemergence greenhouse plant response rating 0 to 100", "assay_type": "in vivo, Sinapis arvensis", "details": "POSTEMERGENCE, 0 to 100 scale", "description": "as §2"}, "[13]": {"tested_on": "wild oat", "experiment": "Test F preemergence/postemergence greenhouse plant response rating 0 to 100", "assay_type": "in vivo, Avena fatua", "details": "POSTEMERGENCE, 0 to 100 scale; for Wild oat (1) plant response rating: stage (1) two to three leaves; for Wild oat (2) plant response rating: stage (2) approximately four leaves or initial tillering", "description": "as §2"}}}
{"molecule": "Fc1cc(Cl)c(OCCCl)cc1-c1nn2c(c1Cl)CCCC2", "note": "[Compound 49]", "values": [{"measurement": "Japonica rice plant response rating", "setting": "[1]; Rate 4 g/ha", "result": 10}, {"measurement": "Japonica rice plant response rating", "setting": "[1]; Rate 8 g/ha", "result": 10}, {"measurement": "Japonica rice plant response rating", "setting": "[1]; Rate 16 g/ha", "result": 10}, {"measurement": "Japonica rice plant response rating", "setting": "[1]; Rate 32 g/ha", "result": 15}, {"measurement": "Japonica rice plant response rating", "setting": "[1]; Rate 64 g/ha", "result": 20}, {"measurement": "Winter Barley plant response rating", "setting": "[2]; Rate 2 g/ha", "result": 0}, {"measurement": "Winter Barley plant response rating", "setting": "[2]; Rate 4 g/ha", "result": 0}, {"measurement": "Winter Barley plant response rating", "setting": "[2]; Rate 8 g/ha", "result": 10}, {"measurement": "Winter Barley plant response rating", "setting": "[2]; Rate 16 g/ha", "result": 10}, {"measurement": "Winter Barley plant response rating", "setting": "[2]; Rate 32 g/ha", "result": 20}, {"measurement": "Barnyardgrass 2 plant response rating", "setting": "[3]; Rate 4 g/ha", "result": 0}, {"measurement": "Barnyardgrass 2 plant response rating", "setting": "[3]; Rate 8 g/ha", "result": 20}, {"measurement": "Barnyardgrass 2 plant response rating", "setting": "[3]; Rate 16 g/ha", "result": 30}, {"measurement": "Barnyardgrass 2 plant response rating", "setting": "[3]; Rate 32 g/ha", "result": 70}, {"measurement": "Barnyardgrass 2 plant response rating", "setting": "[3]; Rate 64 g/ha", "result": 100}, {"measurement": "Japonica 1 plant response rating", "setting": "[4]; Rate 8 g/ha", "result": 0}, {"measurement": "Japonica 2 plant response rating", "setting": "[4]; Rate 8 g/ha", "result": 0}, {"measurement": "Japonica 1 plant response rating", "setting": "[4]; Rate 16 g/ha", "result": 0}, {"measurement": "Japonica 2 plant response rating", "setting": "[4]; Rate 16 g/ha", "result": 20}, {"measurement": "Japonica 1 plant response rating", "setting": "[4]; Rate 32 g/ha", "result": 0}, {"measurement": "Japonica 2 plant response rating", "setting": "[4]; Rate 32 g/ha", "result": 30}, {"measurement": "Japonica 1 plant response rating", "setting": "[4]; Rate 64 g/ha", "result": 25}, {"measurement": "Japonica 2 plant response rating", "setting": "[4]; Rate 64 g/ha", "result": 30}, {"measurement": "Barnyardgrass 2 plant response rating", "setting": "[5]; Rate 8 g/ha", "result": 25}, {"measurement": "Barnyardgrass 3 plant response rating", "setting": "[5]; Rate 8 g/ha", "result": 35}, {"measurement": "Barnyardgrass 2 plant response rating", "setting": "[5]; Rate 16 g/ha", "result": 45}, {"measurement": "Barnyardgrass 3 plant response rating", "setting": "[5]; Rate 16 g/ha", "result": 45}, {"measurement": "Barnyardgrass 2 plant response rating", "setting": "[5]; Rate 32 g/ha", "result": 90}, {"measurement": "Barnyardgrass 3 plant response rating", "setting": "[5]; Rate 32 g/ha", "result": 55}, {"measurement": "Barnyardgrass 2 plant response rating", "setting": "[5]; Rate 64 g/ha", "result": 100}, {"measurement": "Barnyardgrass 3 plant response rating", "setting": "[5]; Rate 64 g/ha", "result": 70}, {"measurement": "Chickweed plant response rating", "setting": "[6]; Rate 2 g/ha", "result": 0}, {"measurement": "Chickweed plant response rating", "setting": "[6]; Rate 4 g/ha", "result": 0}, {"measurement": "Chickweed plant response rating", "setting": "[6]; Rate 8 g/ha", "result": 20}, {"measurement": "Chickweed plant response rating", "setting": "[6]; Rate 16 g/ha", "result": 50}, {"measurement": "Chickweed plant response rating", "setting": "[6]; Rate 32 g/ha", "result": 60}, {"measurement": "Kochia plant response rating", "setting": "[7]; Rate 2 g/ha", "result": 20}, {"measurement": "Kochia plant response rating", "setting": "[7]; Rate 4 g/ha", "result": 60}, {"measurement": "Kochia plant response rating", "setting": "[7]; Rate 8 g/ha", "result": 80}, {"measurement": "Kochia plant response rating", "setting": "[7]; Rate 16 g/ha", "result": 100}, {"measurement": "Kochia plant response rating", "setting": "[7]; Rate 32 g/ha", "result": 100}, {"measurement": "Field violet plant response rating", "setting": "[8]; Rate 8 g/ha", "result": 60}, {"measurement": "Field violet plant response rating", "setting": "[8]; Rate 16 g/ha", "result": 60}, {"measurement": "Field violet plant response rating", "setting": "[8]; Rate 32 g/ha", "result": 100}, {"measurement": "Umbrella sedge plant response rating", "setting": "[9]; Rate 4 g/ha", "result": 0}, {"measurement": "Umbrella sedge plant response rating", "setting": "[9]; Rate 8 g/ha", "result": 0}, {"measurement": "Umbrella sedge plant response rating", "setting": "[9]; Rate 16 g/ha", "result": 0}, {"measurement": "Umbrella sedge plant response rating", "setting": "[9]; Rate 32 g/ha", "result": 0}, {"measurement": "Umbrella sedge plant response rating", "setting": "[9]; Rate 64 g/ha", "result": 50}, {"measurement": "Sugar beet plant response rating", "setting": "[10]; Rate 2 g/ha", "result": 70}, {"measurement": "Sugar beet plant response rating", "setting": "[10]; Rate 4 g/ha", "result": 100}, {"measurement": "Sugar beet plant response rating", "setting": "[10]; Rate 8 g/ha", "result": 100}, {"measurement": "Sugar beet plant response rating", "setting": "[10]; Rate 32 g/ha", "result": 100}, {"measurement": "Duck salad plant response rating", "setting": "[11]; Rate 4 g/ha", "result": 0}, {"measurement": "Duck salad plant response rating", "setting": "[11]; Rate 8 g/ha", "result": 0}, {"measurement": "Duck salad plant response rating", "setting": "[11]; Rate 16 g/ha", "result": 0}, {"measurement": "Duck salad plant response rating", "setting": "[11]; Rate 32 g/ha", "result": 0}, {"measurement": "Duck salad plant response rating", "setting": "[11]; Rate 64 g/ha", "result": 10}, {"measurement": "Wild mustard plant response rating", "setting": "[12]; Rate 2 g/ha", "result": 90}, {"measurement": "Wild mustard plant response rating", "setting": "[12]; Rate 4 g/ha", "result": 100}, {"measurement": "Wild mustard plant response rating", "setting": "[12]; Rate 8 g/ha", "result": 100}, {"measurement": "Wild mustard plant response rating", "setting": "[12]; Rate 32 g/ha", "result": 100}, {"measurement": "Wild oat (1) plant response rating", "setting": "[13]; Rate 2 g/ha", "result": 0}, {"measurement": "Wild oat (2) plant response rating", "setting": "[13]; Rate 2 g/ha", "result": 0}, {"measurement": "Wild oat (1) plant response rating", "setting": "[13]; Rate 4 g/ha", "result": 10}, {"measurement": "Wild oat (2) plant response rating", "setting": "[13]; Rate 4 g/ha", "result": 0}, {"measurement": "Wild oat (1) plant response rating", "setting": "[13]; Rate 8 g/ha", "result": 20}, {"measurement": "Wild oat (2) plant response rating", "setting": "[13]; Rate 8 g/ha", "result": 0}, {"measurement": "Wild oat (1) plant response rating", "setting": "[13]; Rate 16 g/ha", "result": 20}, {"measurement": "Wild oat (2) plant response rating", "setting": "[13]; Rate 16 g/ha", "result": 0}, {"measurement": "Wild oat (1) plant response rating", "setting": "[13]; Rate 32 g/ha", "result": 30}, {"measurement": "Wild oat (2) plant response rating", "setting": "[13]; Rate 32 g/ha", "result": 20}]}
